Data on three compounds can be found in PMC12562567, “Comparative Efficacy of CK2 Inhibitors CX-4945 and SGC-CK2-2 on CK2 Signaling” (International Journal of Molecular Sciences, 2025).

For data set [1], the system named is phospho-Akt1 S129. The data set is described as follows: Western blot of phospho-Akt1 S129 (CK2 substrate) in HeLa cells. As to conditions: for IC50: Homo sapiens, read-out: IC50 pS129 AKT phosphorylation. The format is cell-based, human. The text has this:
(§1) . These substrates were selected based on their different responses to kinase inhibition. S129Akt was described in 2015 as a specific CK2 substrate, and its phosphorylation is highly sensitive to CK2 inhibition showing a strong early reduction. On the contrary, S13-cdc37, described in 2004 as a CK2-specific substrate, requires higher inhibitor concentrations or longer exposure times to achieve a significant impact on its phosphorylation. The phosphorylation of both substrates is reduced in CK2-knockout cells. Moreover, to gain a more comprehensive view of CK2 substrate phosphorylation, we used a phosphoantibody developed against p-Ser/p-Thr containing a CK2 consensus sequence (pS/pTDXE motif).

The test system of data set [2] is phospho-cdc37 S13. As to the kind of experiment: Western blot of phospho-cdc37 S13 (CK2 substrate) in HeLa cells. It counts as cell-based, human. As to conditions: 24 h.
Excerpt: as §1

Data set [3] concerns phospho-Akt1 S129. As to the kind of experiment: Western blot of phospho-Akt1 S129 (CK2 substrate) in MDA-MB-231 cells. The format is cell-based. As to conditions: for IC50: Homo sapiens, read-out: IC50 pS129 AKT phosphorylation. From the text:
(§2) We repeated the same treatments using a different cell line, breast cancer MDA-MB-231. […] . Even though MDA-MB-231 was less responsive to the two CK2 inhibitors than HeLa cells, the overall outcome appeared similar. […] .

For data set [4], the system named is phospho-cdc37 S13. The data set is described as follows: Western blot of phospho-cdc37 S13 (CK2 substrate) in MDA-MB-231 cells. The format is cell-based. As to conditions: Homo sapiens, read-out: IC50 pS13 cdc37 phosphorylation.
Excerpt: as §2

For data set [5], the system named is HeLa cells. As to the kind of experiment: MTT cell viability assay, HeLa. It counts as cell-based, human. On the procedure: (§3) One hour before the end of the incubations, 10 μL of MTT solution (5 mg/mL in PBS) was added to each well. […] Plates were read at λ 540 nm absorbance, in a Titertek Multiskan Plus plate reader (Flow Laboratories, Sutton, UK).
Data set [6] concerns MDA-MB-231 cells. As to the kind of experiment: MTT cell viability assay, MDA-MB-231. It counts as cell-based. As to conditions: for Effect on cell viability (reduction): MDA cells, 2.5 µM. Here is the method: as §3
Data set [7] deals with CSNK2A1. Further details: method as in PMID 41883516. As to conditions: cited from earlier work.
Data set [8] concerns PARP-1. As to the kind of experiment: PARP-1 degradation/cleavage by Western blot, HeLa. As to conditions: HeLa cells.
Details of data set [9]: method as in PMID 37901516. As to conditions: 30 min of incubation; cited from earlier work.
For data set [10] the following is noted: cited from earlier work.
Data set [11] concerns PARP-1. As to the kind of experiment: PARP-1 degradation/cleavage by Western blot, MDA-MB-231. It counts as cell-based. As to conditions: MDA-MB-231 cells.
On the set-up of data set [12]: method as in PMID 37077385. As to conditions: preliminary proliferation assays; cited from earlier work.
[13] abbreviates: MDA-MB-231 cells, 24 h, densitometry of Western blot.

Read-outs that look alike come from different tables or passages of the source.

For the compound `O=C(O)c1ccc2c(c1)nc(Nc1cccc(Cl)c1)c1ccncc12` [CX-4945], in data set [1] (HeLa cells, 2.5 µM (lowest concentration tested), 24 h), the “Phosphorylation of Akt at Ser129” value is reported as “completely abolished”. Also, the IC50 in [1] (HeLa cells, 24 h, densitometry of Western blot) is 0.7 µM; in [2] (Homo sapiens, HeLa cells, densitometry of Western blot, read-out: IC50 pS13 cdc37 phosphorylation), 3 µM; in data set [3] (setting [13]) it was 0.9 µM; in data set [4] (setting [13]), 4.4 µM. Further, the “Effect on cell viability (reduction)” value in data set [5] (HeLa cells, 2.5 µM, 24 h, MTT) was ~ 20%; in data set [5] (HeLa cells, 2.5 µM, 48 h, MTT), ~ 30%; in [6] (24 h, MTT), ~ 5%; in data set [6] (48 h, MTT), ~ 15%. Also, the “Significantly downregulated phosphopeptides determined to be CSNK2A1 dependent” value was 15% in [7] (after 4 h of treatment) and 5% in data set [7] (after 24 h of treatment). Besides, the “Concentration at which PARP-1 degradation (reduction in total PARP-1) is visible” value is recorded as 10 µM in data set [8] (24 h) and 5 µM in data set [8] (48 h). Moreover, the “Concentration at which the 89 KDa PARP fragment is detected” value in data set [8] (after 48 h (first mention (so in the source))) is recorded as 5 µM; in data set [8] (after 48 h (second mention)), 2.5 µM.

As for `CCC(=O)Nc1cc(Nc2cc(NC3CC3)n3ncc(C#N)c3n2)ccc1C` [SGC-CK2-1], the “Significantly downregulated phosphopeptides determined to be CSNK2A1 dependent” value in data set [7] (after 4 h of treatment) and in [7] (after 24 h of treatment) was 55% throughout. Also, the “Compound degraded in vitro in mouse liver microsomes” value in data set [9] is listed as 60%. Further, the Aqueous solubility result in data set [10] is “moderate”.

As for `O=C(O)c1ccc2c(c1)nc(NCc1ccccc1)c1ncncc12` [SGC-CK2-2], the “Concentration that nearly abolishes Akt S129 phosphorylation” value in [1] (HeLa, 24 h treatment) came out at 2.5 µM; in [3] (MDA, 24 h treatment), 5 µM. Besides, the IC50 in data set [1] (HeLa, 24 h) stood at 2.2 µM; in data set [2] (Homo sapiens, HeLa, read-out: IC50 pS13 cdc37 phosphorylation, HeLa cells, 24 h, densitometry of Western blot), 9 µM; in [2] (read-out: IC50 pS13 cdc37 phosphorylation, HeLa cells, densitometry of Western blot) it was 9.9 µM; in data set [3] (MDA-MB-231, 24 h) it was 1.3 µM; in data set [4] (MDA-MB-231, 24 h), 20.4 µM. In addition, the “Reduction in cell viability achieved” value is less than 50% in data set [5] (HeLa cells, 24 h, all concentrations tested (up to 40 µM), MTT) and less than 50% in [6] (MDA-MB-231 cells, 24 h, all concentrations tested (up to 40 µM), MTT). The “Effect on cell viability” value in data set [5] (HeLa, 2.5 µM, 24 h treatment) was “no significant effect”; in data set [6] (MDA, 5 µM, 24 h treatment), “no significant effect”. Moreover, the “Degradation of PARP-1” value in [11] (24 h, all concentrations tested) is recorded as “did not induce any degradation”. In addition, the “Concentration giving significant PARP-1 degradation” value in data set [11] (48 h) is given as no less than 20 µM. In addition, the “Aqueous kinetic solubility relative to SGC-CK2-1” value in data set [10] is “markedly improved”. In addition, the Antiproliferative effects entry in data set [12] was “lacks antiproliferative effects”. In addition, the “Concentration at which PARP-1 degradation (reduction in total PARP-1) is visible” value in data set [8] (24 h) is recorded as 40 µM; in data set [8] (48 h), 20 µM.
